{"source": "patent US4847302A", "about": "“Use of certain compounds in livestock food as growth promotants for better feed utilization and improved carcass composition” (Merck & Co., Inc., priority 1988, dated 1989)", "key": {"[1]": {"experiment": "Growth promoting activity / feed utilization in livestock (general statements)", "format": "in vivo", "conditions": "poultry, sheep or swine"}, "[2]": {"system": "Isolated Swine Adipocytes", "experiment": "Stimulation of lipolysis (glycerol production) in isolated swine adipocytes", "format": "cell-based", "conditions": "for activation at 0.01 µM / activation at 0.05 µM / activation at 0.25 µM: Sus scrofa, Adipocyte, 2 h", "outline": "(§1)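 Collagenase-isolated adipocytes from perirenal/omental fat of 35 to 50 kg gilts (swine) or perirenal fat of 20 to 25 kg lambs (ovine) exposed to test compounds for 2 h at 37 °C in KRB with 2.5 mM glucose and 2% fatty-acid-free BSA. Glycerol released into medium measured fluorometrically; isoproterenol as positive control.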"}, "[3]": {"system": "Isolated Ovine Adipocytes", "experiment": "Stimulation of lipolysis (glycerol production) in isolated ovine adipocytes", "format": "cell-based, sheep", "outline": "as §1"}, "[4]": {"system": "Isolated Chicken Hepatocytes", "experiment": "Inhibition of lipogenesis (14C acetate incorporation) in isolated chicken hepatocytes", "format": "cell-based", "conditions": "Gallus gallus, Hepatocyte, 2 h", "outline": "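Chicken hepatocytes were incubated with ^14C acetate and test compounds for 2 h at 37° C. Lipids were then extracted with Doles reagent and hexane, and ^14C in total lipids was counted by liquid scintillation, reported as CPM incorporated.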"}, "[5]": {"experiment": "Growth, feed conversion and carcass composition of broilers raised in floor pens for 7 weeks", "format": "in vivo", "conditions": "0.5 ppm in diet", "experimental": "Compound V (bitolterol) was compared to clenbuterol for effects on growth, feed conversion and carcass composition of broilers raised in floor pens for 7 weeks. […] Bitolterol at the highest dose improved rate of gain 2.6% (P 0.01), feed conversion 3.8% (P 0.05) and carcass protein 4.9% (P 0.10).\nClenbuterol at 0.5 ppm in the diet was administered for 7 weeks to one group and only during the last 4 weeks to another group. […] Clenbuterol given for 7 weeks improved feed conversion 3.5% (P 0.05) and appeared to improve (not significant) rate of gain 0.4%, carcass weight 0.7% and carcass protein 4.0% and to decrease (not significant) carcass fat 7.1%."}, "[6]": {"conditions": "Baker et al., Fed. Proc. 42; some species of food livestock; cited from earlier work"}, "[7]": {"experiment": "In vivo testing in rats: growth, feed conversion and carcass composition", "design": "species or system rat (male Charles River CD)", "conditions": "in diet; for Gain / Feed Intake / Weight / Carcass Composition % of Change over Control, Fat / Carcass Composition % of Change over Control, Protein: dose equivalent to 20 ppm clenbuterol (clenbuterol: 10)", "outline": "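Male Charles River CD rats (75-90 g), ten per group, randomized by weight after four days' acclimation. Compounds premixed into ground chow at doses equivalent to 20 ppm clenbuterol on a molecular weight basis; growth, feed conversion and carcass composition assessed.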"}, "[8]": {"system": "Rat Adipose Tissue", "experiment": "Stimulation of lipolysis (glycerol production) in chopped rat adipose tissue", "format": "cell-based", "conditions": "Rattus norvegicus, 2 h", "outline": "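Chopped epididymal/perirenal fat from 150–200 g male rats, used as whole adipose preparation, incubated with test compounds at 37° C for 2 h in FSM. Isoproterenol served as positive control. Glycerol released into the medium was measured fluorometrically as the lipolysis read-out.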"}, "[9]": {"conditions": "read-out: percent increase compared to control, glycerol production, Test 1"}, "[10]": {"conditions": "read-out: percent increase compared to control, glycerol production, Test 2"}, "[11]": {"conditions": "read-out: percent change compared to control, 14C acetate incorporation in fatty acids, Test 1"}, "[12]": {"conditions": "read-out: percent change compared to control, 14C acetate incorporation in fatty acids, Test 2"}}, "note": "Where two headings read alike, the source gives them in different places.", "data": [{"molecule": "CC(C)(C)NCC(O)c1cc(Cl)c(N)c(Cl)c1", "note": "(stereo not shown) [Clenbuterol, clenbuterol]", "values": [{"measurement": "activity compared with other compounds in poultry, sheep or swine", "setting": "[1]", "result": "not as active as other compounds in poultry, sheep or swine"}, {"measurement": "activation at 0.01 µM", "setting": "[2]; [9]", "result": 27, "unit": "%"}, {"measurement": "activation at 0.05 µM", "setting": "[2]; [9]", "result": -20, "unit": "%"}, {"measurement": "activation at 0.25 µM", "setting": "[2]; [9]", "result": -27, "unit": "%"}, {"measurement": "activation at 0.01 µM", "setting": "[2]; [10]", "result": 0, "unit": "%"}, {"measurement": "activation at 0.05 µM", "setting": "[2]; [10]", "result": -20, "unit": "%"}, {"measurement": "activation at 0.25 µM", "setting": "[2]; [10]", "result": 4, "unit": "%"}, {"measurement": "lipolytic activity (in words)", "setting": "[2]; isolated swine adipocytes", "result": "lack of activity"}, {"measurement": "activation at 0.05 µM", "setting": "[3]; Ovis aries, Adipocyte, 2 h, read-out: percent increase compared to control, glycerol production, Test 1", "result": 240, "unit": "%"}, {"measurement": "activation at 0.25 µM", "setting": "[3]; Ovis aries, Adipocyte, 2 h, read-out: percent increase compared to control, glycerol production, Test 1, 0.25 μM", "result": 325, "unit": "%"}, {"measurement": "activation at 0.01 µM", "setting": "[3]; Ovis aries, Adipocyte, 2 h, read-out: percent increase compared to control, glycerol production, Test 2, 0.01 μM", "result": 186, "unit": "%"}, {"measurement": "activation at 0.05 µM", "setting": "[3]; Ovis aries, Adipocyte, 2 h, read-out: percent increase compared to control, glycerol production, Test 2", "result": 857, "unit": "%"}, {"measurement": "percent increase compared to control, glycerol production", "setting": "[3]; Test 1, 0.01 μM", "result": "inactive"}, {"measurement": "inhibition at 0.01 µM", "setting": "[4]; [11]", "result": 4.2, "unit": "%"}, {"measurement": "inhibition at 0.05 µM", "setting": "[4]; [11]", "result": 16.4, "unit": "%"}, {"measurement": "inhibition at 0.25 µM", "setting": "[4]; [11]", "result": 24.6, "unit": "%"}, {"measurement": "inhibition at 0.01 µM", "setting": "[4]; [12]", "result": 8, "unit": "%"}, {"measurement": "inhibition at 0.05 µM", "setting": "[4]; [12]", "result": 18, "unit": "%"}, {"measurement": "inhibition at 0.25 µM", "setting": "[4]; [12]", "result": 16, "unit": "%"}, {"measurement": "feed conversion and carcass protein, 7 weeks versus 4 weeks of administration", "setting": "[5]", "result": "slightly more effective"}, {"measurement": "improvement of feed conversion", "setting": "[5]; 7 weeks, P 0.05", "result": 3.5, "unit": "%"}, {"measurement": "decrease of carcass fat", "setting": "[5]; 7 weeks, not significant", "result": 7.1, "unit": "%"}, {"measurement": "improvement of carcass protein", "setting": "[5]; 7 weeks, not significant", "result": 4.0, "unit": "%"}, {"measurement": "improvement of carcass weight", "setting": "[5]; 7 weeks, not significant", "result": 0.7, "unit": "%"}, {"measurement": "improvement of rate of gain", "setting": "[5]; 7 weeks, not significant", "result": 0.4, "unit": "%"}, {"measurement": "enhancement of food utilization and change of carcass composition", "setting": "[6]", "result": "functions in this way"}, {"measurement": "Gain", "setting": "[7]; Test 1, control 7.3", "result": 7.8, "unit": "g/day"}, {"measurement": "Feed Intake", "setting": "[7]; Test 1, control 18.6", "result": 19.2, "unit": "g/day"}, {"measurement": "Weight", "setting": "[7]; Test 1, control 191.8", "result": 198.6, "unit": "g"}, {"measurement": "Carcass Composition % of Change over Control, Fat", "setting": "[7]; Test 1", "result": -11.3, "unit": "%"}, {"measurement": "Carcass Composition % of Change over Control, Protein", "setting": "[7]; Test 1", "result": 11.2, "unit": "%"}, {"measurement": "Gain", "setting": "[7]; Test 2, control 7.5", "result": 8.2, "unit": "g/day"}, {"measurement": "Feed Intake", "setting": "[7]; Test 2, control 19.3", "result": 19.9, "unit": "g/day"}, {"measurement": "Weight", "setting": "[7]; Test 2, control 202.3", "result": 216.9, "unit": "g"}, {"measurement": "Carcass Composition % of Change over Control, Fat", "setting": "[7]; Test 2", "result": -11.9, "unit": "%"}, {"measurement": "Carcass Composition % of Change over Control, Protein", "setting": "[7]; Test 2", "result": 4.3, "unit": "%"}, {"measurement": "minimum dose needed to give maximum improvements in gain and feed conversion", "setting": "[7]; previously determined", "result": 10, "unit": "ppm"}, {"measurement": "activation at 0.01 µM", "setting": "[8]; [9]", "result": 12, "unit": "%"}, {"measurement": "activation at 0.05 µM", "setting": "[8]; [9]", "result": 26, "unit": "%"}, {"measurement": "activation at 0.25 µM", "setting": "[8]; [9]", "result": 21, "unit": "%"}, {"measurement": "activation at 0.01 µM", "setting": "[8]; [10]", "result": 10, "unit": "%"}, {"measurement": "activation at 0.05 µM", "setting": "[8]; [10]", "result": 10, "unit": "%"}, {"measurement": "activation at 0.25 µM", "setting": "[8]; [10]", "result": 16, "unit": "%"}]}]}
